Laboratory results: patent publication US7612045B2, “Compounds, compositions and methods for controlling biofilms and bacterial infections” (Sequoia Sciences, Inc., priority 2005, dated 2009)
Where two headings read alike, the source gives them in different places.

Assays:
[1] = system: Pseudomonas aeruginosa; test: Microtiter plate biofilm formation assay (crystal violet), Pseudomonas aeruginosa; assay type: cell-based; settings: read-out: % Biofilm Inhibition of Pseudomonas Aeruginosa
Protocol: In this example, a concentrated solution of each compound tested was loaded separately into three separate wells of a polystyrene microtiter plate. In addition, each assay included triplicate wells correlating to negative and positive controls. […] Next, 150 μl of sterile media was added to each well (LB media with 0.2% glucose)—followed by 50 μl of the appropriate bacterial inoculum. Thus, each well contained a final volume of approximately 200 μl (not including the volume of the concentrated inhibitor). The final concentration of each biofilm inhibitor tested in the assay was 10 μg/ml. The microtiter plates were then placed on a shaker for approximately 20 to 24 hours at room temperature. After the incubation period, the microtiter plate was removed from the shaker, rinsed, and stained. During the rinsing step, the test compound, media, and bacterial inoculum solution was drained from the plate, approximately 300 μL of 0.1M phosphate buffered saline (PBS) was added to each well, which was subsequently drained from the plate. The rinsing step removed any suspended cells from the assay. An 0.1% crystal violet stain was added to each well for approximately 20 minutes. Next, the crystal violet solution was drained from the microtiter plate. The plate was rinsed with PBS as described above four (4) times to remove any excess stain from the plate. Following the PBS rinsing steps, the plate was eluted with 250 μL/well of ethanol, which improved the detection of the stain. The plate was immediately analyzed spectrophotometrically at 540 nm using a microtiter plate reader.
The average O.D. for each test compound was compared to the average O.D. of the negative control (the positive control was employed to verify proper assay function).

[2] = system: E. coli clinical strain UTI89; test: Biofilm formation of E. coli clinical strain UTI89 in 96 well plates (crystal violet); assay type: cell-based; settings: Escherichia coli, 24 h, one day, read-out: inhibition of biofilm formation of the UTI89 strain as compared to the controls; for inhibition at 32 µg/mL: 32 ug/ml; for inhibition at 8 µg/mL: 8 ug/ml; for inhibition at 16 µg/mL: 16 ug/ml
Protocol: Biofilm inhibition experiments were conducted using an assay adapted from the reported protocol described in Pratt and Kolter, 1998, Molecular Microbiology, 30: 285-293; Li et al., 2001, J. Bacteriol., 183: 897-908. E. coli clinical strain UTI89 was grown in LB in 96 well plates at room temperature for one day without shaking. To quantify the biofilm mass, the suspension culture was poured out and the biofilm was washed three times with water. The biofilm was stained with 0.1% crystal violet for 20 minutes. The plates were then washed three times with water. Then 95% ethanol was added to dissolve the dye at the bottom and on the wall and the OD reading at 540 nm was measured to quantify the total biofilm mass. Test compounds were added with the inoculation and biofilm mass was measured after one day as described above appropriate amounts of 100% ethanol were added to each sample to eliminate the effect of solvent. Each condition had 4 to 8 replicates on each plate and was performed over multiple days.

[3] = system: Escherichia coli; test: Microtiter plate biofilm formation assay (crystal violet), Escherichia coli; assay type: cell-based; settings: read-out: % Biofilm Inhibition of E. coli
[4] = system: S. mutans; settings: data of the '911 patent; cited from earlier work
[5] = system: P. aeruginosa; settings: data of the '911 patent; cited from earlier work
[6] = system: E. coli; settings: data of the '911 patent; cited from earlier work
[7] = system: S. salivaris; settings: data of the '911 patent; cited from earlier work
[8] = system: S. aureus; settings: data of the '911 patent; cited from earlier work
[9] = system: bacterial growth; test: Bacterial growth inhibition studies; assay type: cell-based
[10] = system: methicillin-resistant Staphylococcus aureus; settings: cited from earlier work
[11] = 10 μg/ml, 20 to 24 hours at room temperature, O.D. 540 nm vs negative control
[12] = 10 μg/ml, same microtiter assay

SMILES: C[C@@H]1[C@H]2C3=CC[C@@H]4[C@@]5(C)CC[C@H](OC(=O)/C=C\c6ccc(O)cc6)C(C)(C)[C@@H]5CC[C@@]4(C)[C@]3(C)CC[C@@]2(C(=O)O)CC[C@]1(C)O (relative stereo) [Compound 188, 3-[4-Hydroxycinnamoyl(cis-)], 20-hydroxy-ursolic acid]
- inhibition at 10 µg/mL [1, 11]: 62%

SMILES: CO[C@H]1C[C@@]2(C)C(CC[C@]3(C)C2CC=C2C4[C@@H](C)[C@H](C)CC[C@]4(C(=O)O)CC[C@]23C)C(C)(C)[C@@H]1OC(=O)/C=C/c1ccccc1 (stereo partly drawn) [2β-methoxy-3α-cinnamoyl-12-ursen-28-oic acid]
- inhibition at 32 µg/mL [2]: ~40%

SMILES: C[C@@H]1CC[C@]2(C(=O)O)CC[C@]3(C)C(=CCC4[C@@]5(C)CC[C@H](OC(=O)OC(C)(C)C)C(C)(C)C5CC[C@]43C)C2[C@H]1C (stereo partly drawn) [3β-O-tert-butyloxycarbonyl-ursolic acid]
- inhibition at 32 µg/mL [2]: ~46%

SMILES: C[C@H]1[C@H](CO)CC[C@]2(C(=O)O)CC[C@]3(C)C(=CCC4[C@@]5(C)CC[C@H](O)C(C)(C)C5CC[C@]43C)[C@H]12 (some centres unmarked) [Compound 99, 30-hydroxyursolic acid]
- inhibition at 10 µg/mL [1, 11]: 30%

SMILES: CC1(C)CC[C@]2(C(=O)O)CCC3(C)C(=CCC4C5(C)C[C@@H](O)[C@H](O)C(C)(C)C5CCC43C)[C@@H]2C1 (some centres unmarked) [Compound 107, 2-hydroxyoleanic acid]
- inhibition at 10 µg/mL [1]: 46%

SMILES: C[C@@H]1CC[C@]2(C(=O)O)CCC3(C)C(=CCC4C5(C)C[C@@H](O)[C@H](O)C(C)(C)C5CCC43C)C2[C@H]1C (stereo partly drawn) [Compound 108, 2α,3β-dihydroxy-12-ursen-28-oic acid]
- inhibition at 10 µg/mL [1, 11]: 52%
- inhibition at 20 µg/mL ([2]; 20 ug/ml): ~85%
- inhibition at 10 µg/mL [3, 12]: 74%

SMILES: C[C@H]1[C@H](C)CC[C@]2(C(=O)O)CC[C@]3(C)C(=CC[C@@H]4[C@@]5(C)CC[C@H](O)C(C)(C)[C@@H]5CC[C@]43C)[C@H]12 [Compound 110, Ursolic Acid]
- Growth inhibition of S. mutans [4]: completely inhibited
- Growth inhibition of P. aeruginosa [5]: failed to inhibit
- Growth inhibition of E. coli [6]: failed to inhibit
- Growth inhibition of S. salivaris [7]: completely inhibited
- inhibition at 10 µg/mL [3, 12]: 80%
- Growth inhibition of S. aureus [8]: failed to inhibit

SMILES: C[C@H]1[C@H](C)CC[C@]2(C(=O)O)CC[C@]3(C)C(=CCC4[C@@]5(C)C[C@@H](O)[C@H](OC(=O)/C=C/c6ccc(O)cc6)C(C)(C)C5CC[C@]43C)[C@H]12 (stereo partly drawn) [Compound 189, 3-[4-hydroxycinnamoyl(trans-)]-2-hydroxyursolic acid]
- inhibition at 10 µg/mL [1, 11]: 35%

SMILES: CC1CCC2(C(=O)O)CCC3(C)C(=CCC4C5(C)CC(O)C(O)C(C)(C)C5CCC43C)C2C1(C)O (centres unmarked) [Compound 192, Euscaphic Acid]
- inhibition at 10 µg/mL [1, 11]: 32%

SMILES: C[C@@H]1[C@H]2C3=CCC4[C@@]5(C)CC[C@H](O)C(C)(C)C5CC[C@@]4(C)[C@]3(C)CC[C@@]2(C(=O)O)CC[C@]1(C)O (some centres unmarked) [Compound 195, 20B-hydroxyursolic acid]
- inhibition at 10 µg/mL [1, 11]: 25%

SMILES: C[C@@H]1CC[C@]2(C(=O)O)CC[C@]3(C)C(=CCC4[C@@]5(C)C[C@@H](O)[C@H](O)C(C)(C)C5CC[C@]43C)[C@@H]2[C@]1(C)O (some centres unmarked) [Compound 203, Tormentic Acid]
- inhibition at 10 µg/mL [1, 11]: 43%

SMILES: CC1(C)CC[C@]2(C(=O)O)CC[C@]3(C)C(=CC[C@@H]4[C@@]5(C)CC[C@H](O)C(C)(C)[C@@H]5CC[C@]43C)[C@@H]2C1 [Compound 225, Oleanolic Acid]
- Growth inhibition of S. mutans [4]: incomplete inhibition
- inhibition at 10 µg/mL [1, 11]: 35%
- Growth inhibition of P. aeruginosa [5]: failed to inhibit
- Growth inhibition of E. coli [6]: failed to inhibit
- Growth inhibition of S. salivaris [7]: incomplete inhibition
- inhibition at 10 µg/mL [3, 12]: 35%
- Growth inhibition of S. aureus [8]: failed to inhibit

SMILES: C[C@@H]1CCC2(C(=O)O)CC[C@]3(C)C(=CCC4[C@@]5(C)C[C@@H](O)[C@H](O)[C@@](C)(CO)C5CC[C@]43C)C2[C@H]1C (some centres unmarked) [Compound 255, Asiatic Acid]
- inhibition at 10 µg/mL [3, 12]: 75%
- direct anti-bacterial activity [9]: do not display direct anti-bacterial activity

SMILES: C[C@H]1[C@H](C)CC[C@]2(C(=O)O)CC[C@]3(C)C(=CC[C@@H]4[C@@]5(C)C[C@@H](O)[C@H](O)[C@@](C)(CO)[C@@H]5[C@H](O)C[C@]43C)[C@H]12 [Compound 314, Madecassic Acid]
- direct anti-bacterial activity [9]: do not display direct anti-bacterial activity

SMILES: CC1(C)CC[C@@]2(C(=O)O)C(O)C[C@]3(C)C(=CCC4[C@@]5(C)CC[C@H](O)[C@@](C)(CO)C5CC[C@]43C)C2C1 (some centres unmarked) [Compound 323, Caulophyllogenin]
- inhibition at 10 µg/mL [3, 12]: 35%

SMILES: CO[C@H]1C[C@@]2(C)C(CC[C@]3(C)C2CC=C2C4[C@@H](C)[C@H](C)CCC4(C(=O)O)CC[C@]23C)C(C)(C)[C@@H]1O (stereo partly drawn) [Compound 410, 2β-methoxy-3α-hydroxy-12-ursen-28-oic acid]
- inhibition at 32 µg/mL [2]: ~38%

SMILES: C=C1CCC2(C(=O)O)CCC3(C)C(=CCC4C5(C)CCC(O)C(C)(C)C5CCC43C)C2C1C (centres unmarked) [Compound 430, 3-hydroxy-12,20(30) ursadien-28-oic acid]
- inhibition at 10 µg/mL [3]: 60%

SMILES: C[C@@H]1CC[C@]2(C(=O)O)CCC3(C)C(=CCC4C5(C)C[C@H](O)[C@@H](O)C(C)(C)C5CCC43C)C2[C@H]1C (stereo partly drawn) [Compound 431, 2β,3α-dihydroxy-12-ursen-28-oic acid]
- inhibition at 32 µg/mL [2]: ~62%

SMILES: CC1(C)CC[C@]2(C(=O)O)[C@H](O)C[C@]3(C)C(=CC[C@@H]4[C@@]5(C)CC[C@H](O)C(C)(C)[C@@H]5CC[C@]43C)[C@@H]2C1 [Compound 455, 3β,16α-dihydroxyolean-12-en-28-oic acid]
- inhibition at 8 µg/mL [2]: ~27%
- inhibition at 16 µg/mL [2]: ~50%
- inhibition at 32 µg/mL [2]: ~80%

SMILES: C[C@@H]1CC[C@]2(C(=O)O)CC[C@]3(C)C(=CCC4[C@@]5(C)C[C@@H](O)[C@@H](O)[C@](C)(CO)C5CC[C@]43C)C2[C@H]1C (stereo partly drawn) [Compound 457, 2α,3α,24-trihydroxy-12-ursen-28-oic acid]
- inhibition at 8 µg/mL [2]: ~50%
- inhibition at 16 µg/mL [2]: ~53%
- inhibition at 32 µg/mL [2]: ~80%

SMILES: C[C@@H]1CC[C@]2(C(=O)O)CC[C@]3(C)C(=CCC4[C@]5(C)C(CC[C@]43C)[C@@](C)(CO)[C@H](O)[C@H](O)[C@H]5O)C2[C@H]1C (stereo partly drawn) [Compound 458, 1β,2α,3α,24-tetrahydroxy-12-ursen-28-oic acid]
- inhibition at 32 µg/mL [2]: ~45%

SMILES: CO[C@H]1/C=C/O[C@@]2(C)Oc3c(C)c(O)c4c(O)c(c(/C=N/N5CCN(C)CC5)c(O)c4c3C2=O)NC(=O)/C(C)=C\C=C\[C@H](C)[C@H](O)[C@@H](C)[C@@H](O)[C@@H](C)[C@H](OC(C)=O)[C@@H]1C [rifampin]
- Eradication of MRSA in a biofilm ([10]; biofilm, urinary catheters): unable to eradicate
- Activity against MRSA planktonic, or suspended cells ([10]; planktonic cells): effective
